According to EP1232756A1, “DRUGS, DRINKS OR FOODS” (Takara Shuzo Co, Ltd., priority 1999, dated 2001):

Assays:
[1] = biological target: T1, ER(α) (estrogen receptor α) (Homo sapiens, UniProt P03372); assay: Binding to estrogen receptor, fluorescence polarization competition (FP Screen-for-Competitors kit, ER-α) (Example 7); settings: concentration inhibiting 50% of the binding of the ES1-ER(α) complex by competing with ES1; 1 hour at room temperature
T1 construct: purchased PanVera V2577
T1 sequence (P03372 1-595): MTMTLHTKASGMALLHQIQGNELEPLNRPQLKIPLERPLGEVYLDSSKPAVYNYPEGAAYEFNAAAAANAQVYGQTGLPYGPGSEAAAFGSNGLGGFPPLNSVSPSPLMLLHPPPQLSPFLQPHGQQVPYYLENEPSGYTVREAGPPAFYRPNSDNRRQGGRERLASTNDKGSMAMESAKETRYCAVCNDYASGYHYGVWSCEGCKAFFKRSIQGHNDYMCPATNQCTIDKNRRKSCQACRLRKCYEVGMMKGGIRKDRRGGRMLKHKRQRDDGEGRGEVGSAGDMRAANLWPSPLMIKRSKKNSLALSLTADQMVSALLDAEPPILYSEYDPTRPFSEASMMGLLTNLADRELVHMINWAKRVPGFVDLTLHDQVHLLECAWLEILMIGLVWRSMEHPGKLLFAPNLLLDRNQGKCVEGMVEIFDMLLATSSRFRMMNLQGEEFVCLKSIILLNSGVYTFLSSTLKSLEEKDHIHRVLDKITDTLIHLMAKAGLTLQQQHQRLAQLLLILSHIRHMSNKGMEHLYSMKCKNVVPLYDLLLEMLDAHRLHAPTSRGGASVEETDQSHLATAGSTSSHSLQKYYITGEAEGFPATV
Experimental: Bindings of various gallic acid derivatives to estrogen receptor were tested using FP Screen-for-Competitors kit, ER-α, high sensitivity kit (V2577: PanVera). The tests were carried out basically according to the procedure as described in the manual attached to the kit. One of various gallic acid derivatives (n-octyl gallate (gallic acid n-octyl ester), n-dodecyl gallate (gallic acid n-dodecyl ester) and n-cetyl gallate (gallic acid n-hexadecyl ester)) was dissolved in DMSO and serially diluted to prepare diluted samples (0.5 M - 0.0000000005 M). 49 µL of Screening buffer attached to the kit was added to 1 µL of one of the diluted samples and stirred thoroughly. 50 µL of 10 nM-15 nM:ES1-ER(α) complex (a complex of ES1 (a fluorescent ligand that binds to ER) and ER(α) (estrogen receptor α)) attached to the kit was added thereto, resulting in the total volume of 100 µL. After allowing to stand for 1 hour at room temperature, fluorescence polarization was measured at an excitation wavelength of 360 nm and an emission wavelength of 535 nm using Full-Range BEACON 2000 (PanVera).

female SD rat [2] = assay: Anti-estrogenic activity of n-octyl gallate or n-cetyl gallate against subcutaneously administered BisA, rat uterine weight (Example 11); type: in vivo; settings: for Ratio: vs control (100%)
Experimental: A 17-days old female SD rat (Japan SLC) was purchased together with its mother, weaned at 20 days of age, and subjected to experiments from the next day. n-Octyl gallate or n-cetyl gallate (both from Tokyo Kasei Kogyo) was dissolved in a small volume of ethanol. Peanut oil was added thereto to result in a final ethanol concentration of 5%. The resulting mixture was orally administered to the 21-days old female SD rat for three successive days. The uterine removed on the day after the last administration day was weighed. Peanut oil containing 5% ethanol was used for a vehicle administration group. BisA was dissolved in a small volume of ethanol. Peanut oil was added thereto to result in a final ethanol concentration of 5%. The mixture was subcutaneously administered.

female SD rat [3] = assay: Anti-estrogenic activity of solution of EGCG in ethanol against 4-nonylphenol, rat uterine weight (Example 3); type: in vivo; settings: NP 50 mg/kg oral alone
Experimental: A 16-days old female SD rat (Japan SLC) was purchased together with its mother, weaned at 19 days of age, and subjected to experiments from the next day.
4-Nonylphenol (hereinafter referred to as NP) was weighed such that it would be administered at 50 mg/kg and diluted by adding peanut oil thereto. The resulting mixture was orally administered for three successive days. The uterine removed on the day after the third administration day was weighed. EGCG was dissolved by adding ethanol and water was then added thereto to adjust the final ethanol concentration to 10%. The solution was orally administered 90 minutes before the administration of NP.

female SD rat [4] = assay: Anti-estrogenic activity of n-octyl gallate against NP, rat uterine weight (Example 10); type: in vivo; settings: NP 50 mg/kg oral + vehicle
Experimental: (§1) A 16-days old female SD rat (Japan SLC) was purchased together with its mother, weaned at 19 days of age, and subjected to experiments from the next day. n-Octyl gallate (Tokyo Kasei Kogyo) was dissolved in a small volume of ethanol. Peanut oil was added thereto to result in a final ethanol concentration of 5%. The resulting mixture was orally administered to the 20-days old female SD rat for three successive days. The uterine removed on the day after the last administration day was weighed. Peanut oil containing 5% ethanol was used for a vehicle administration group. NP weighed such that it would be administered at 50 mg/kg was diluted by adding peanut oil. It was orally administered 1.5 hours after the administration of n-octyl gallate.

female SD rat [5] = assay: Agonistic (estrogenic) activity: immature rat uterine weight (Example 1(2)); type: in vivo; settings: substance alone
Experimental: A 17-days old female SD rat (purchased from Japan SLC) was received together with its mother, weaned at 20 days of age, and subjected to experiments from the next day. Five ml per kg body weight of EGCG (Sigma) or bisphenol-A (hereinafter referred to as BisA, Tokyo Kasei Kogyo) suspended in peanut oil (Nacalai Tesque) was administered orally and forcibly. Peanut oil was administered to a control rat in a similar manner. Administration was carried out once a day for three successive days. The uterine removed 24 hours after the last administration was weighed. BisA or EGCG (80 or 800 mg/kg) was administered. […]

female SD rat [6] = assay: Antagonistic (anti-estrogenic) activity of EGCG against bisphenol-A, immature rat uterine weight (Example 1(3)); type: in vivo; settings: BisA 800 mg/kg oral alone
Experimental: A 17-days old female SD rat (purchased from Japan SLC) was received together with its mother, weaned at 20 days of age, and subjected to experiments from the next day. Five ml per kg body weight of EGCG (Sigma) or bisphenol-A (hereinafter referred to as BisA, Tokyo Kasei Kogyo) suspended in peanut oil (Nacalai Tesque) was administered orally and forcibly. Peanut oil was administered to a control rat in a similar manner. Administration was carried out once a day for three successive days. The uterine removed 24 hours after the last administration was weighed. BisA (800 mg/kg) and EGCG (800 mg/kg) were administered at the same time.

female SD rat [7] = assay: Anti-estrogenic activity of solution of EGCG in ethanol against bisphenol-A, rat uterine weight (Example 2); type: in vivo; settings: for Uterine weight: mean ± standard error; for Ratio: vs control (100%)
Experimental: A 17-days old female SD rat (purchased from Japan SLC) was received together with its mother, weaned at 20 days of age, and subjected to experiments from the next day. BisA was weighed such that it would be administered at 200 or 40 mg/kg and dissolved in a small volume of ethanol. Peanut oil was added thereto to result in a final ethanol concentration of 5%. The resulting mixture was orally administered for three successive days. The uterine removed on the next day was weighed. EGCG was dissolved by adding ethanol and water was then added thereto to adjust the final ethanol concentration to 10%. The solution was orally administered on the day before the administration of BisA and 30 minutes before each of the successive administrations of BisA.

female SD rat [8] = assay: Effect of ethanol concentration on anti-estrogenic activity of EGCG, rat uterine weight (Example 4); type: in vivo; settings: BisA 40 mg/kg subcutaneous alone
Experimental: (§2) A 16-days old female SD rat (Japan SLC) was purchased together with its mother, weaned at 19 days of age, and subjected to experiments from the next day. BisA was weighed such that it would be administered at 40 mg/kg and dissolved in a small volume of ethanol. Peanut oil was added thereto to result in a final ethanol concentration of 5%. The resulting mixture was subcutaneously administered for three successive days. The uterine removed on the day after the third administration day was weighed. EGCG (200 mg/kg) was dissolved by adding ethanol and water was then added thereto to adjust the final ethanol concentration to 10, 5, 1, 0.5 or 0%. The solution was orally administered 90 minutes before the administration of BisA.

female SD rat [9] = assay: Anti-estrogenic activity of solution of EGCG in ethanol, subcutaneous BisA, rat uterine weight (Example 5); type: in vivo; settings: BisA 40 mg/kg subcutaneous alone
Experimental: as §2, with “10” for “10, 5, 1, 0.5”, “30” for “90”

female SD rat [10] = assay: Dose dependency of anti-estrogenic activity of solution of EGCG in ethanol, rat uterine weight (Example 6); type: in vivo; settings: for Ratio: vs control (100%)
Experimental: as §2, with “subcutaneously or orally” for “subcutaneously”, “EGCG” for “EGCG (200 mg/kg)”, “10%.” for “10, 5, 1, 0.5 or 0%.”, “30” for “90”

[11] = system: human breast cancer-derived MCF-7 cells; assay: E-SCREEN assay, proliferation of cultured cells, MTT method (Example 8); type: cell-based; settings: BisA alone
Experimental: A test for proliferation of cultured cells was carried out according to a method called the E-SCREEN assay as described in Ana M. Soto et al. (Environ. Health Perspect. 103:113-122(1995)). Briefly, 4.0 x 10^3 of human breast cancer-derived MCF-7 cells in a volume of 100 µL were seeded into each well of a 96-well plate. The plate was incubated overnight. BisA or a combination of BisA and n-octyl gallate was then added thereto. A well without the addition was used as a control. The cells were further cultured for 4 days in a medium, Dulbecco's modified Eagle medium without Phenol Red supplemented with 5% FCS treated with activated carbon-dextran. The MTT method was used to measured the cell numbers.

female SD rat [12] = assay: Anti-estrogenic activity of n-octyl gallate against BisA, rat uterine weight (Example 9); type: in vivo; settings: BisA 40 mg/kg oral + vehicle
Experimental: as §1, with “BisA” for “NP weighed such that it would be administered at 50 mg/kg”, “dissolved in a small volume of ethanol. Peanut oil was added thereto to result in a final ethanol concentration of 5%.” for “diluted by adding peanut oil.”

CCCCCCCCCCCCCCCCOC(=O)c1cc(O)c(O)c(O)c1 [n-cetyl gallate, gallic acid n-hexadecyl ester]
IC50 [1]: 47.6 nM | Uterine weight (female SD rat [2]; BisA 40 mg/kg subcutaneous + n-cetyl gallate 1 mg/kg oral, 3 days): 45.1 ± 2.3 mg | Uterine weight (female SD rat [2]; BisA 40 mg/kg subcutaneous + n-cetyl gallate 5 mg/kg oral, 3 days): 43.1 ± 2.0 mg | Ratio (female SD rat [2]; BisA 40 mg/kg subcutaneous + n-cetyl gallate 1 mg/kg oral): 109% | Ratio (female SD rat [2]; BisA 40 mg/kg subcutaneous + n-cetyl gallate 5 mg/kg oral): 104%

CCCCCCCCCCCCOC(=O)c1cc(O)c(O)c(O)c1 [n-Dodecyl gallate, gallic acid n-dodecyl ester]
IC50 [1]: 311 nM

CCCCCCCCCc1ccc(O)cc1 [NP, 4-Nonylphenol, reference compound]
Uterine weight (female SD rat [3]; mean ± standard error): 44.4 ± 3.2 mg | Ratio (female SD rat [3]; vs control (100%)): 144% | Uterine weight (female SD rat [4]; mean ± standard error): 47.6 ± 2.3 mg | Ratio (female SD rat [4]; vs control (100%)): 144%

CC(C)(c1ccc(O)cc1)c1ccc(O)cc1 [BisA, bisphenol-A, reference compound]
Uterine weight (female SD rat [5]; 800 mg/kg oral in peanut oil, once a day for 3 days, mean ± standard error): 55.2 ± 2.3 mg | Ratio (female SD rat [5]; uterine weight vs control group (100%), 800 mg/kg oral, 3 days): 137% | Uterine weight (female SD rat [6]; mean ± standard error): 54.7 ± 5.5 mg | Ratio (female SD rat [6]; vs control (100%)): 147% | Uterine weight (female SD rat [7]; BisA 40 mg/kg oral alone): 64.5 ± 9.2 mg | Uterine weight (female SD rat [7]; BisA 200 mg/kg oral alone): 57.7 ± 5.2 mg | Ratio (female SD rat [7]; BisA 40 mg/kg, oral, alone): 149% | Ratio (female SD rat [7]; BisA 200 mg/kg oral alone): 133% | Uterine weight (female SD rat [8]; mean ± standard error): 49.9 ± 2.1 mg | Ratio (female SD rat [8]; vs control (100%)): 186% | Uterine weight (female SD rat [9]; mean ± standard error): 50.0 ± 2.7 mg | Ratio (female SD rat [9]; vs control (100%)): 162% | Uterine weight (female SD rat [10]; BisA 40 mg/kg subcutaneous alone, mean ± standard error): 52.2 ± 2.9 mg | Ratio (female SD rat [10]; BisA 40 mg/kg subcutaneous alone): 160% | Ratio (female SD rat [10]; BisA 40 mg/kg, oral, alone): 140% | number of the cells proliferated relative to the control ([11]; MCF-7): 1.8 fold | Relative rate of increase in cell number ([11]; MCF-7, 4 days culture, control = 100): 180% | Uterine weight (female SD rat [12]; mean ± standard error): 48.9 ± 2.1 mg | Ratio (female SD rat [12]; vs control (100%)): 161% | Uterine weight (female SD rat [2]; BisA 40 mg/kg subcutaneous + vehicle, mean ± standard error): 59.7 ± 2.7 mg | Ratio (female SD rat [2]; BisA 40 mg/kg subcutaneous + vehicle): 145%
